Entries after “also recorded” stand apart in the source; their conditions may differ.
Columns and labels:
Format in all cases: in vivo
stressed mice [1] = assay: Elevated plus maze (EPM), UCMS-stressed mice, Examples 1-3; conditions: UCMS-stressed male ICR mice; herbs and NHT 30 mg/kg, escitalopram 15 mg/kg i.p., 3 weeks; vs vehicle
Method: ICR outbred 28-30 days old male mice (Envigo, Israel) were maintained in the vivarium of the Open University lab in Hadassah Ein Karem medical cement, Jerusalem. Mice were group housed (5 mice per cage) and each cage contained mice from all treatment groups. Mice were given ad libitum access to food and water except during stressor application (with the exclusion of the light/dark cycle reversal). Mice kept on a reversed 12 h light/dark cycle (lights on 7:00 pm-7:00 am) while experimental procedures were performed during the dark phase under red light. All experiments were approved by the Open University of Israel committee for animal care and use. Methods were carried out in accordance with the NIH guidelines.
The EPM task was performed as previously described [6]. Shortly, each mouse was placed in the center of the maze and video recorded for 5 min. Anxiety-like behavior was expressed as the time the mouse spent in the open, unprotected arms of the maze. […]

[2] = Body weight monitoring, stressed mice; conditions: UCMS-stressed mice, Shan-zha and NHT 30 mg/kg, escitalopram 15 mg/kg i.p., 3 weeks, vs vehicle
Method: Crataegus pinnatifida, Triticum aestivum, Lilium brownii and Fructus zizyphi jujuba were purchased as freeze-dried granules (KPC Products, Inc., Irvine, CA, USA). Each herb was dissolved in saline with 1% dimethylsulfoxide (DMSO) to a final concentration of 0.47 mg/ml and injected i.p. individually (30 mg/kg) or with the other components to form the formula (NHT, 30 mg/kg). […] Vehicle treatment included i.p. injection of saline with 1% DMSO. All treatments were carried out for 3 weeks. Mice were weighed every 3 days throughout the treatment period. Change in weight was calculated as final (weight-initial weight)/initial weight×100.

Ckb gene = assay: Hippocampal RNA-sequencing, gene expression after UCMS; conditions: hippocampus; UCMS mice; Shan-zha 30 mg/kg, escitalopram 15 mg/kg, 3 weeks; vs UCMS-exposed saline treated group
Method: (§1) An Unbiased genome-wide transcriptomic profiling was conducted to reveal alterations in gene expression in the hippocampus induced by treatment. Male ICR mice were subjected to UCMS, after which they were treated with Shan-zha (30 mg/kg), NHT (30 mg/kg), Esciatlopram (15 mg/kg) or saline for 3 weeks. The anxiolytic-like effect of the treatments was verified by EPM. Subsequently, brains were rapidly removed and RNA was isolated from the hippocampus using RNeasy kit (Qiagen). RNA-sequencing (on NGS) and gene expression analysis was conducted. The analysis yielded a wide range of changes in gene expression.
(§2) First, all samples were normalized and clustered in order to verify that there are no noticeable biases based on batches/process/technician/day.. Next, hit maps were generated, in order to observe the global differences between the groups. After which, a PCA analysis was performed to visualize the separation between the samples. Finally, Differential expression analysis with DESE-Q was done, and changes in gene expression of the following genes, which are highly relevant to anxiety, depression or drug-related side effects were followed: […]

rab11B gene = assay: as above; conditions: hippocampus; UCMS mice; Shan-zha 30 mg/kg, escitalopram 15 mg/kg, 3 weeks; vs UCMS-exposed saline treated group
Method: as §1, §2

stressed mice [3] = assay: EPM, UCMS-stressed mice, Example 7
Method: Animals. ICR outbred mice (Envigo RMS (Harlen), Israel) are kept in the vivarium of the Open University lab in Hadassah medical center, Jerusalem. Mice are kept on a reversed 12 h light/dark cycle and given ad libitum access to food and water. All experiments are performed during the dark phase under red light (7:00-19:00). All experiments have been approved by the committee for animal care and use according to the NIH guidelines. Drugs. Drugs are dissolved in saline and 1% DMSO to the desired concentration and administered i.p. Herbal mixture and Shan-zha (30 mg/kg) will be prepared by dissolving each component (KPC Products, Inc., CA, USA) to a final concentration of 0.47 mg/ml. […] Unpredictable chronic mild stress (UCMS). Mice are exposed to UCMS for 4 weeks at the age of 4 weeks as previously described. Elevated plus maze (EPM). This task is based on the natural tendency of mice to avoid open and elevated places. EPM are performed as previously described. Anxiety-like behavior are expressed as the time the animal spent in the open, unprotected arms of the maze.

stressed mice [4] = assay: Open Field Test (OFT), UCMS-stressed mice, Example 7; conditions: 30 mg/kg (escitalopram 15 mg/kg) i.p., 3 weeks, vs vehicle
Method: Animals. ICR outbred mice (Envigo RMS (Harlen), Israel) are kept in the vivarium of the Open University lab in Hadassah medical center, Jerusalem. Mice are kept on a reversed 12 h light/dark cycle and given ad libitum access to food and water. All experiments are performed during the dark phase under red light (7:00-19:00). All experiments have been approved by the committee for animal care and use according to the NIH guidelines. Drugs. Drugs are dissolved in saline and 1% DMSO to the desired concentration and administered i.p. Herbal mixture and Shan-zha (30 mg/kg) will be prepared by dissolving each component (KPC Products, Inc., CA, USA) to a final concentration of 0.47 mg/ml. […] Unpredictable chronic mild stress (UCMS). Mice are exposed to UCMS for 4 weeks at the age of 4 weeks as previously described. Open Field Test (OFT). This test reflects the conflict between the innate fear that mice have of the central area of the field versus their desire to explore new environments. When anxious, the natural tendency of mice is to prefer staying close to the walls. […] Anxiety-like behavior is expressed as the time the animal spent in the center area of the field (Walsh, R. N. and R. A. Cummins, Psychol Bull, 1976. 83(3): p. 482-504). Locomotor activity are expressed as the percentage of time that the mouse moved in the arena in a velocity above 0.1 pixel/sec.

stressed mice [5] = assay: Forced Swim Test (FST), UCMS-stressed mice, Example 7; conditions: 30 mg/kg (escitalopram 15 mg/kg) i.p., 3 weeks, vs vehicle
Method: Animals. ICR outbred mice (Envigo RMS (Harlen), Israel) are kept in the vivarium of the Open University lab in Hadassah medical center, Jerusalem. Mice are kept on a reversed 12 h light/dark cycle and given ad libitum access to food and water. All experiments are performed during the dark phase under red light (7:00-19:00). All experiments have been approved by the committee for animal care and use according to the NIH guidelines. Drugs. Drugs are dissolved in saline and 1% DMSO to the desired concentration and administered i.p. Herbal mixture and Shan-zha (30 mg/kg) will be prepared by dissolving each component (KPC Products, Inc., CA, USA) to a final concentration of 0.47 mg/ml. […] Unpredictable chronic mild stress (UCMS). Mice are exposed to UCMS for 4 weeks at the age of 4 weeks as previously described. Forced Swim Test (FST). This test is based upon the evaluation of immobility as a measure of behavioral despair and are performed as previously described. Depressive-like behavior are expressed as the time the mouse was immobile defined as cessation of limb movements except minor movement necessary to keep the mouse afloat.

Structure (SMILES): CN(C)CCC[C@@]1(c2ccc(F)cc2)OCc2cc(C#N)ccc21 [escitalopram]
- time spent in the open arms of the EPM (anxiety-like behavior) (stressed mice [1]): spent more time in the open arms of the maze in comparison with vehicle-treated mice; also recorded: reduced anxiety-like behavior in the EPM compared to vehicle
- weight change [2]: significantly increased weight compared to vehicle
- weight change ([2]; listed as Escitalopram): higher weight gain in comparison with vehicle-treated mice
- Ckb gene expression (Ckb gene): 0.83 fold change
- RAB11b gene expression (rab11B gene): 0.77 fold change
- anxiety-like behavior in the EPM (stressed mice [3]; stressed mice, 30 mg/kg (escitalopram 15 mg/kg) i.p., 3 weeks, vs vehicle): exhibited reduced anxiety-like behavior in the EPM compared to vehicle-treated stressed mice
- time (seconds) spent in open arms in the EPM, FIG. 22 experiment (stressed mice [3]; vs saline, fractions SZ 50% and SZ 20% at 3 mg, listed as Escitalopram): Mice treated with saline spent significantly less time in open arms in comparison to other treatment groups
- anxiety-like behavior in the OFT (stressed mice [4]): exhibited reduced anxiety-like behavior in the OFT compared to vehicle-treated stressed mice
- depressive-like behavior in the FST (stressed mice [5]): exhibited reduced depressive-like behavior in the FST compared to vehicle-treated stressed mice
